EP0531938B1, “Acrylic gel material and gel-based medical preparation for percutaneous absorption employing the same” (NITTO DENKO CORPORATION, priority 1991, dated 1993)

Assay: Solubility of drug in pressure-sensitive adhesive and in liquid component
Type: physicochemical
Settings: percent by weight

## O=[N+]([O-])O[C@H]1CO[C@H]2[C@@H]1OC[C@H]2O[N+](=O)[O-] [isosorbide dinitrate]
Adhesive of Comparative Example 15 (95 parts 2-ethylhexyl acrylate, 5 parts acrylic acid)
  solubility in the pressure-sensitive adhesive: 7%
  solubility in isopropyl myristate: 2.1%
